In US20160082071A1, “METHODS OF TREATING MYELOID LEUKEMIA” (BIOKINE THERAPEUTICS LTD., priority 2013, published 2016):
Where two headings read alike, the source gives them in different places.

What was measured:
[1] = system: Normal C57BL/6 female mice; details: mouse, in vivo
Protocol: (§1) Lyophilized 4F-benzoyl-TN14003 was manufactured by MSD N.V. The compound was dissolved with water for injection (WFI) at a final stock concentration of 25 mg/ml and stored at −20° C. until use. Before injection to the mice, 4F-benzoyl-TN14003 was thawed and diluted with PBS to final concentration of 5 mg/ml. Actual dosing solutions were prepared by diluting the 5 mg/ml stock solution (total dose including salt) in PBS just before the injection. 4F-benzoyl-TN14003 was administered at a constant dose volume of 200 μL.
(§2) Cytarabine (Cytosine arabinoside; ARA-C) was purchased from Hadassah cytotoxica pharmacy (Israel). ARA-C was provided from Hadassah cytotoxica pharmacy at concentration of 100 mg/ml. Actual dose solution (200 mg/Kg) was prepared by diluting the 100 mg/ml stock solution in PBS.
(§3) Normal C57BL/6 female mice, 9-10 week old, about 20 gram in weight, were used. The animals were kept in groups of a maximum of 10 animals in polysulphone cages (425×266×185 mm), fitted with solid bottoms and filled with wood shavings as bedding material. The animals were provided ad libitum a commercial rodent diet (Harlan Teklad™ Ra/Mouse Diet) and allowed free access to autoclaved water, supplied to each cage via polysulphone bottles with stainless steel sipper-tubes. From the first day of ARA-C dosing wet food was placed at the bottom of the cage. Ten animals were randomly allocated per treatment group.
(§4) The treatments groups were as followed (10 animals per treatment group): • Group A: untreated control. • Group B: animals administered with 4FB-TN14003 at a dose of 2.4, 4.8, 9.6 or 12 mg/Kg daily from day 1 to day 7. • Group C: animals administered with ARA-C at a dose of 200 mg/Kg daily from day 3 to 7. • Group D: animals administered with 4FB-TN14003 as in group B (at a dose of 2.4, 4.8, 9.6 or 12 mg/Kg daily from day 1 to day 7) and also with ARA-C as in group C (at a dose of 200 mg/Kg daily from day 3 to 7).
(§5) 4FB-TN14003 was injected SC at a constant dose volume of 200 μL/mouse (based on the latest determined body weight-average of 20 gr), once daily for 7 consecutive days (days 1-7). Control mice were injected with the vehicle (PBS) only under the same regimen.
(§6) ARA-C was diluted in PBS and injected SC at a constant dose of 200 mg/kg and at constant volume of 200 μL/mouse, once daily for 5 consecutive days (days 3-7). In the combination groups (groups 7-10) ARA-C was injected 4 hours following 4FB-TN14003 injection.
(§7) Blood samples were collected on day 12 of the experiment. The mice in each group were subjected to terminal bleeding from the orbital sinus. Blood samples (ca. 400-500 μl) were dispensed into special serum gel separation tubes (BD Microgard™) centrifuged at 13,000 rpm for 8 minutes at RT and saved the supernatant sera. Sera samples (at least 220 μl) were kept at 2-8° C. to complete blood counts (CBC).

human AML xenografts = details: subcutaneous injections; Beider et al., Exp. Hematol. 2011; cited from earlier work
[2] = system: malignant cells of hematopoietic origin including AML; details: cited from earlier work
[3] = system: Normal C57BL/6 female mice; test: Toxicity assay: complete blood counts in mice treated with 4F-benzoyl-TN14003, ARA-C or both
Protocol: as §1, §2, §3, §4, §5, §6, §7

Row | hematocrit [1] | hemoglobin (HGB) [1] | lymphocyte Abs [1] | platelets [1] | red blood-cells (RBC) [1] | Compound | growth of human AML xenografts (human AML xenografts) | cytotoxicity toward malignant cells of hematopoietic origin including AML [2] | levels of platelets ([3]; ARA-C alone versus ARA-C in combination with 4F-benzoyl-TN14003, FIG. 5) | levels of neutrophil Abs ([3]; ARA-C alone versus ARA-C in combination with 4F-benzoyl-TN14003, FIG. 7) | white blood-cells (WBC) ([3]; compared with untreated control, blood collected day 12 (five days after treatment), ARA-C 200 mg/Kg SC days 3-7, 4F-benzoyl-TN14003 2.4, 4.8, 9.6 or 12 mg/Kg SC days 1-7, FIG. 1) | red blood-cells (RBC) ([3]; compared with untreated control, blood collected day 12, FIG. 2) | hematocrit ([3]; compared with untreated control, blood collected day 12, FIG. 3) | hemoglobin (HGB) ([3]; compared with untreated control, blood collected day 12, FIG. 4) | platelets ([3]; compared with untreated control, blood collected day 12, FIG. 5) | lymphocyte Abs ([3]; compared with untreated control, blood collected day 12, FIG. 6) | neutrophil Abs ([3]; compared with untreated control, blood collected day 12, FIG. 7)
1 | did not cause a reduction | did not cause a reduction | did not cause a reduction | did not cause a reduction | did not cause a reduction | 4F-benzoyl-Arg-Arg-Nal-Cys-Tyr-Cit-Lys-DLys-Pro-Tyr-Arg-Cit-Cys-Arg-NH2 [4F-benzoyl-TN14003] | significantly reduced | CXCR4-dependent preferential cytotoxicity | – | – | – | – | – | – | – | – | –
2 | – | – | – | – | – | Nc1ccn([C@@H]2O[C@H](CO)[C@@H](O)[C@@H]2O)c(=O)n1 [ARA-C, Cytarabine] | – | – | equally reduced levels | equally reduced levels | drastic reduction | drastic reduction | drastic reduction | drastic reduction | drastic reduction | drastic reduction | drastic reduction
